The source made the active and inactive calls. The calls are words filed in the database; no cut-off is given here.
Columns and labels:
NCI-H1299 [1] = assay: Antimigratory activity against human H1299 cells assessed as reduction in cell migration at 50 uM incubated for 24 hrs by wound healing assay; type: functional, cell-based
NCI-H1299 [2] = assay: Anti-invasive activity in human H1299 cells assessed as reduction in cell invasion at 50 uM incubated for 24 hrs by transwell migration assay; type: functional, cell-based
Plasmodium falciparum = assay: Antimalarial activity against Plasmodium falciparum assessed as inhibition of parasite growth measured after 72 hrs by NLuc method; type: functional, organism-based
A549 = assay: Antiproliferative activity against human A549 cells assessed as inhibition of culture growth incubated for 48 hrs by SRB assay; type: functional
HeLa = assay: Antiproliferative activity against human HeLa cells assessed as inhibition of culture growth incubated for 48 hrs by SRB assay; type: functional
SW1573 = assay: Antiproliferative activity against human SW1573 cells assessed as inhibition of culture growth incubated for 48 hrs by SRB assay; type: functional
T47D = assay: Antiproliferative activity against human T47D cells assessed as inhibition of culture growth incubated for 48 hrs by SRB assay; type: functional
HBL-100 = assay: Antiproliferative activity against human HBL-100 cells assessed as inhibition of culture growth incubated for 48 hrs by SRB assay; type: functional
NCI-H1299 [3] = assay: Antiproliferative activity against human H1299 cells assessed as inhibition of culture growth incubated for 48 hrs by SRB assay; type: functional

| GI50 (A549) [µM] | GI50 (HeLa) [µM] | GI50 (SW1573) [µM] | GI50 (T47D) [µM] | GI50 (NCI-H1299 [3]) [µM] | Compound | Activity (NCI-H1299 [1]) | Activity (NCI-H1299 [2]) | IC50 (Plasmodium falciparum) [µM] | GI50 (HBL-100) [µM] |
| --- | --- | --- | --- | --- | --- | --- | --- | --- | --- |
| – | – | – | – | – | CCCCCCCCSc1ccccc1C(=O)O | Active | Active | – | – |
| 5.4 | 4.3 | 5.8 | 9.6 | 59 | C/C(=C\Cn1cc(CSc2ccccc2C(=O)O)nn1)CCC[C@H](C)CCC[C@H](C)CCCC(C)C | – | – | 9.75 | 10 |
| 9.2 | 6.9 | 9.3 | 20 | 27 | CCCCCCCCCCCCCCCCn1cc(CSc2ccccc2C(=O)O)nn1 | – | – | – | 14 |
| 1.5 | 3.3 | 14 | 22 | – | COc1cc([C@@H]2c3cc4c(cc3[C@@H](O[C@@H]3O[C@@H]5CO[C@@H](C)O[C@H]5[C@H](O)[C@H]3O)[C@H]3COC(=O)[C@H]23)OCO4)cc(OC)c1O [ETOPOSIDE] | – | – | – | 1.4 |
| – | – | – | – | – | CC(C)=CCC/C(C)=C/Cn1cc(CSc2ccccc2C(=O)O)nn1 | inactive | – | – | – |
| 38 | 29 | 37 | 41 | – | CC(C)=CCC/C(C)=C/CC/C(C)=C/CC/C(C)=C/CSc1ccccc1C(=O)O | – | – | – | 23 |
| 40 | 33 | 40 | 52 | 102 | CC(C)=CCC/C(C)=C/CC/C(C)=C/Cn1cc(CSc2ccccc2C(=O)O)nn1 | – | – | – | 33 |
| 14 | 12 | 15 | 18 | > 100 | C/C(=C\CSc1ccccc1C(=O)O)CCCC(C)CCCC(C)CCCC(C)C (centres undefined) | – | – | – | 14 |
| – | – | – | – | – | CC(C)=CCC/C(C)=C/CSc1ccccc1C(=O)O | Active | Active | – | – |
| – | – | – | – | – | CCCCCCCCCCSc1ccccc1C(=O)O | Active | inactive | – | – |
| 61 | 39 | 47 | 93 | > 100 | CCCCCCCCn1cc(CSc2ccccc2C(=O)O)nn1 | inactive | – | – | 40 |
| 34 | 34 | 41 | 42 | 85 | CC(C)=CCC/C(C)=C/CC/C(C)=C/CSc1ccccc1C(=O)O [SALIRASIB] | – | – | – | 22 |

| Compound | GI50 (A549) [µM] | GI50 (HeLa) [µM] | GI50 (SW1573) [µM] | GI50 (T47D) [µM] | GI50 (NCI-H1299 [3]) [µM] | Activity (NCI-H1299 [1]) | Activity (NCI-H1299 [2]) | IC50 (Plasmodium falciparum) [µM] | GI50 (HBL-100) [µM] |
| --- | --- | --- | --- | --- | --- | --- | --- | --- | --- |
| CC[C@@]1(O)C(=O)OCc2c1cc1n(c2=O)Cc2cc3ccccc3nc2-1 [CAMPTOTHECIN] | – | 0.6 | 0.3 | 2 | – | – | – | – | 0.2 |

Source: ChEMBL document CHEMBL5325490, “Lipophilic modification of salirasib modulates the antiproliferative and antimigratory activity” (Bioorg Med Chem, 2023)
